Measured values from patent US20130231472A1, “USE OF MOLECULAR MARKERS FOR THE PRECLINICAL PROFILING OF INHIBITORS OF ENZYMES HAVING HISTONE DEACETYLASE ACTIVITY” (priority 2002, published 2013).

Experiments:
HDAC-2 = test: Ubiquitinated proteins in anti HDAC-2 immune precipitates (Westernblot against ubiquitin); format: cell-based; conditions: FIG. 10A
Text: FIG. 10: (A) The total amount of high molecular weight poly-ubiquitinated protein was not altered by VPA treatment of cells (left two lanes). The presence of ubiquitinated proteins in anti HDAC-2 immune precipitates is shown in the right part of the panel. […] Ubiquitinated proteins in the precipitates were detected by Western blot analysis. For lane N a non-immune serum was used instead of the anti HDAC-2 antibody. (B) The presence of mono- and/or oligo-ubiquitinated HDAC-2 upon VPA treatment of HEK293T cells was determined by ectopic expression of His6-tagged ubiquitin followed by VPA-treatment for 36 h as indicated. The proteasome inhibitor MG-132 was added 4 h prior to analysis to enhance the accumulation of ubiquitinated proteins. Electrophoretic mobility and unaltered presence of non-ubiquitinated HDAC-2 were determined by Westernblot analysis of whole cell extracts (left panel). […] Anti-HDAC-2 immuno-reactive bands with the expected mobility of mono- or poly-ubiquitinated HDAC-2 are indicated by a bracket.

[1] = system: splenocytes from leukemic mice (>75% blasts); test: Apoptosis of cultured leukemic splenocytes/APL blasts (propidium iodide staining); format: cell-based; conditions: VPA 1 mM, 48 hours, FIG. 3B
Method: FIG. 3: (A) Secondary acute promyelocytic leukemias were induced in mice as described above. Leukemic mice were then treated with placebo (Ctrl), or VPA (400 mg/kg every 12 hours). Mice were sacrificed 48 hours after beginning of treatments, and then leukemic spleens were fixed and either stained for histological examination (hematoxylin-eosyn, left panels), or analyzed for the presence of apoptotic cells (TUNEL assay, right panels). (B) Secondary leukemias were obtained as above. Mice were sacrificed when leukemic invasion of peripheral organs was >75% (spleen). Splenocytes from healthy mice (taken as control, left panel), or from leukemic mice (>75% blasts, right panel) were put in culture and then treated with VPA (1 mM) for 48 hours. At the end of the treatment, apoptosis was measured by propidium iodide staining. The sub-G1 area indicates the hypodiploid DNA peak corresponding to cells with fragmented DNA undergoing apoptosis.
FIG. 5: Leukemic blasts were obtained from spleens of secondary leukemic mice with a >75% invasion of tumor cells, as assessed by histological examination. Cells were put in culture and treated with VPA (1 mM) for 48 hours, in the absence or in the presence of the indicated TRAIL and/or caspase 8 inhibitors as indicated. At the end of the treatment, apoptosis was measured as described above.

HDAC-2 mRNA = HDAC-2 mRNA levels in HEK293T cells (Northern blot); format: cell-based, human; conditions: 1 mM VPA, FIG. 7
Method: FIG. 7: F9 cells or HEK 293T cells were treated for indicated times with 1 mM VPA and the levels of HDAC-2 mRNA were determined by Northern blot analysis from 5 μg polyA^+ RNA.

CCCC(CCC)C(=O)O [VPA, Valproic acid]
amount of ubiquitinated protein precipitated with antibody against HDAC-2 (HDAC-2; VPA 1.5 mM, 24 h, ALLN 5 μM): increase the amount of this anti-ubiquitin reactive protein
overall amount of cellular ubiquitinated proteins (HDAC-2; VPA treatment): moderately reduced
apoptosis (propidium iodide, sub-G1) [1]: induces massive apoptosis of leukemic cells
HDAC-2 mRNA levels (HDAC-2 mRNA): no response of HDAC-2 mRNA levels
